Experimental data reported in the METLIN SMRT retention time set (Domingo-Almenara et al. 2019).

test: gradient 5% acetonitrile 3 min, to 50% in 2 min, to 85% in 15 min, held 3 min, 100 µL/min; settings: column: Zorbax Extend-C18 2.1 x 50 mm; eluents: water / acetonitrile, 0.1% formic acid
How it was run: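 Mixtures of ~100 pure standards were chromatographed on a Zorbax Extend-C18 column (2.1 × 50 mm, 1.8 μm) at 100 μL/min using water and acetonitrile, each with 0.1% formic acid. Detection used a quadrupole time-of-flight mass spectrometer in positive and negative ionization mode, and data collection spanned 3 months. Retention time was obtained from adduct peaks picked computationally and each checked manually.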

RP-LC retention time [s]	SMILES
689	O=C(c1ccncc1)N1CCC(n2c(-c3ccco3)nc3cccnc32)C1 (centres undefined)
913	O=C(CN1C(=O)CCc2cc(Br)ccc21)N1CCN(c2ccccc2)CC1
844	Cc1cccc(NC(=O)C2CCN(S(C)(=O)=O)c3ccccc3O2)c1C (centres undefined)
663	Cc1cc(N2CCCC2)n2nc(CN3CCN(c4cccc(Cl)c4)CC3)nc2n1
822	CC(C)(C)NC(=O)NCCC1CCN(S(=O)(=O)c2ccccc2)CC1
640	O=C(Nc1ccc(Cl)cc1)c1cn2c(n1)CCCC2
940	Cc1ccc(CNC(=O)c2nnc(-c3ccc(S(=O)(=O)N4CCCC4)cc3)o2)cc1
599	Cc1noc(C)c1CN1CCN(C(=O)NCc2cccc(F)c2)CC1
1060	CCOC(=O)c1nc(NCC2CCN(Cc3ccccc3Cl)CC2)c2ccccc2n1
706	Cc1c(C(=O)N2CCN(c3ccc(F)cc3)CC2)sc2nc[nH]c(=O)c12
1120	CCOc1ccc(S(=O)(=O)N2CCC(c3noc(-c4ccc(F)cc4)n3)CC2)cc1
921	Cc1nn(CC(=O)N2CCN(c3ccc(Cl)cc3)CC2)c(=O)c2nc(C(C)C)sc12
1120	CC(C)Cc1ccc(S(=O)(=O)N2C[C@@H](F)C[C@H]2C(=O)N2CCc3ccccc3C2)cc1
1050	Cn1c(=O)n(CC(=O)N2CCCCC2)c(=O)c2cnc(-c3ccc(Cl)cc3)nc21
738	Cc1ccc(Nc2cc(C)nc(N3CCN(C(=O)Nc4ccccc4)CC3)n2)cc1
640	CCNC(=O)C1CCCN(c2nc3ncn(CC(=O)NCc4ccc5c(c4)OCO5)c(=O)c3s2)C1 (centres undefined)
612	Cc1cc(C)c2c(N3CCCC3)nc(C(=O)Nc3ccc(N4CCOCC4)cc3)nc2n1
575	CCN(CC)c1ccc(-c2noc(CN3CCN(c4ccccn4)CC3)n2)cn1
641	CCC1=C(c2ccc(C)cc2)S(=O)(=O)N=C1N1CCC(C(=O)N2CCN(C)CC2)CC1
695	CCc1ccc(NC(=O)CSc2ccc(N3CCCC(C(=O)NC4CC4)C3)nn2)cc1 (centres undefined)
639	CCN(CCNC(=O)C1CCCN(c2ncnc3c2nc2n3CCCCC2)C1)Cc1ccccc1 (centres undefined)
631	Cc1ccc(C)c(S(=O)(=O)Nc2ccc3nc(N4CCN(CCC#N)CC4)cc(C(=O)O)c3c2)c1
921	CCc1ccc(NC(=O)Cn2c(=O)nc(N3CCC(C)CC3)c3ccccc32)cc1
668	Cc1nn(C)c(C)c1S(=O)(=O)N1CCC2(CC1)c1[nH]c3ccccc3c1CCN2C
952	Cc1nn(-c2ccccc2)c(C)c1N1CCN(S(=O)(=O)c2c(C)noc2C)CC1

RP-LC retention time [s]	SMILES
911	CCOC(=O)CNC(=O)N1CCCCCC1c1ccccc1Cl (centres undefined)
961	COc1ccc(C2CCCN2C(=O)c2cc(-c3ccco3)on2)cc1 (centres undefined)
886	Cc1cccc(S(=O)(=O)N2CCC(OCc3nc(C)no3)CC2)c1
584	Cc1ccc(NC(=O)N2CCN(CCn3cnc4cccnc43)CC2)c(Cl)c1
740	O=C1[C@H]2CN(Cc3ccc(Cl)cc3)C[C@H]2C(=O)N1CCN1CCc2ccccc2C1
721	CC(C)c1noc(-c2ccn3c(CC(=O)N4CCCCC4)nnc3c2)n1
860	O=C(Nc1ccc(F)cc1)N1CCN(Cc2nc3cc(-c4ccccc4)ccc3o2)CC1
609	Cc1onc(-c2c(Cl)cccc2Cl)c1C(=O)N1CCN(C)CC1
1010	COc1ccc(Nc2nc(N3CCN(c4ncccn4)CC3)nc3c2C(=O)CCC3)cc1
1010	O=c1n(Cc2cccc(Br)c2)nc2c(S(=O)(=O)N3CCCCCC3)cccn12
999	C=Cc1ccc(Cn2nc3c(S(=O)(=O)N4CCCCCC4)cccn3c2=O)cc1
1020	CCc1ccc(S(=O)(=O)N2CCC(C)(C(=O)NCc3ccccc3C)CC2)cc1
628	COCCN1C(=O)c2ccccc2C(C(=O)NCCN2CCOCC2)C1c1ccc(F)cc1 (centres undefined)
696	CCCn1nc2ccc(S(=O)(=O)N3CCOCC3)cn2c1=O
835	O=C(c1ccc(S(=O)(=O)c2ccc(Br)cc2)nc1)N1CCN(c2ncccn2)CC1
787	CCOc1ccc2ncc(S(=O)(=O)c3ccccc3)c(N3CCN(C)CC3)c2c1
603	CC(C)(C)C(=O)Nc1ccc2nc(N3CCN(CC(=O)N4CCCCCC4)CC3)cc(C(=O)O)c2c1
882	COc1ccccc1CNC(=O)C1=C2CCCN2c2ccc(F)cc2S1(=O)=O
794	COC(=O)CNC(=O)C1COc2ccc(NC(=O)c3ccc(Cl)cc3)cc2C1 (centres undefined)
663	Cn1c(=O)sc2cc(S(=O)(=O)N3CCC(C(=O)N4CCOCC4)CC3)ccc21
592	Cc1cc2c(N3CCCC(C(=O)NCc4ccc(N5CCC(C)CC5)cc4)C3)nccc2s1 (centres undefined)
597	CS(=O)(=O)N1C[C@H]2CCN(Cc3ccc(F)cc3Cl)C[C@H]21
589	CC(C)c1nc2cccnc2n1CCN1CCN(C(=O)Nc2ccc(F)cc2F)CC1
785	COc1ccccc1C(=O)N1CCCC(COc2ccc(C(=O)NC3CC3)cc2)C1 (centres undefined)

Continued, compound first:

SMILES	RP-LC retention time [s]
O=C(CCc1nnc2c3cc(-c4ccccc4)nn3ccn12)N1CCC2(CC1)OCCO2	686
CCOCCCNC(=O)Cn1ncc2c(N3CCN(c4ccccn4)CC3)ncnc21	565
Cc1ccccc1CC(=O)Nc1cc(-c2cccs2)no1	969
CCn1nccc1-c1cccc(-c2noc(-c3cnccn3)n2)c1	883
O=C(NCC1CCCCC1)C1CCN(c2cncnc2N2CCOCC2)CC1	644
CC(C)c1noc(-c2ccnc(-n3cnc(C(=O)NCc4ccccc4)c3)c2)n1	939
COCc1nc2cccnc2n1C1CCN(C(=O)Nc2ccc(OC)c(OC)c2)CC1	638
COc1cc(OC)cc(C(=O)N2CCN(c3nc4ccccc4cc3-c3noc(C)n3)CC2)c1	971
CCOC(=O)c1c(C)[nH]c(CCC(=O)NCCN2CCCC2)c1C	554
Nc1nc(N)c2nc(-c3cccc(O)c3)cnc2n1	599
O=C(Nc1cccc(Cl)c1)Nn1cnnc1	691
O=C(CCc1ccccc1)Nc1c(-c2ccc(F)cc2)nc2ccccn12	687
CCN(CC)CCNc1ncnc2c1cnn2-c1cccc(Cl)c1	684
CC(=O)N1C[C@@H]2CCCN3CCC[C@@H]([C@H]23)[C@H]1CCCC(=O)NCC1CC1	562
Cc1ccc(C(=O)N2CCc3cc(-c4ccno4)ccc32)cc1	974
COc1ccc(OC)c(NC(=O)N2CCN(CCn3c(C(F)(F)F)nc4cccnc43)CC2)c1	642
Cc1ccc(-c2nc3ccc(C)cn3c2NC(=O)c2ccc(Cl)cc2)cc1	763
Cc1ccccc1-n1c(Cn2cnc3c(N)ncnc32)nc2cccc(C)c2c1=O	719
CCN(CC)C(=O)c1cc(=O)n(CC(=O)NC2CCCC2)c2ccccc12	685
O=C(NCC1CCCO1)c1c[nH]c2ncccc12 (centres undefined)	589

SMILES	RP-LC retention time [s]
COc1ccc(-c2noc(C3CCCN3C(=O)Nc3ccc(OC)c(Cl)c3)n2)cc1 (centres undefined)	974
CN(C)c1ccc(-c2nc(C3CC(=O)N(c4ccc(F)cc4)C3)no2)cc1 (centres undefined)	975
CC(C)NC(=O)N1CCC(OC2CCN(Cc3ccccc3)CC2)CC1	564
CCCn1c(=O)c(C)nc2cc(-c3noc(-c4cccc(F)c4)n3)ccc21	1210
O=C(Cc1cccs1)Nc1ccc(OCc2nnc(-c3ccccc3)o2)cc1	879
Fc1cc(F)c2c(c1)C1C=CCC1C(c1cccnc1)N2 (centres undefined)	706
Cc1ccc2[nH]cc(CCN3CC(C(=O)Nc4ccc(F)cc4F)CC3=O)c2c1 (centres undefined)	835
CCN1CCN(C(=O)CC2Sc3ncccc3N(CC)C2=O)CC1 (centres undefined)	576
CN(C)C1(CC2CC2)CCN(C(=O)c2ccoc2)CC1	556
CSCC(CO)NC(=O)/C=C/c1c(C)[nH]c(=O)[nH]c1=O (centres undefined)	564
CCOC(=O)c1nc(NCCN2CCOCC2)c2ccccc2n1	584
CNS(=O)(=O)CCCOc1cccc2c1OC(C)(C)C2	776
COCCN1C(=O)[C@H]2CN(Cc3cc(OC)cc(OC)c3)C[C@H]2C1=O	598
Cc1cc(C)c(CN2CC(CNC(=O)N3CCCC3)C3(CCOCC3)C2)c(C)c1 (centres undefined)	635
CC(C)Oc1ccc(-c2noc(CN3C(=O)COc4cc(C(C)(C)C)ccc43)n2)cc1	1370
Cc1ccc(C2Cn3nnc(C(=O)N4CCC(C(=O)NC5CC5)CC4)c3CO2)cc1 (centres undefined)	733
CN(CC1CCOCC1)C(=O)Cc1ccccc1Cl	771
CCOc1ccccc1CNC(=O)C1CCN(c2nc(CC)nc3csc(C)c23)CC1	1030
CCOC(=O)Cc1csc(NC(=O)c2csc(Nc3cccc(Cl)c3)n2)n1	952
Cc1cccc(NC(=O)Cn2cnc(-c3nc(C)cs3)c2)c1	687
